Patent publication US20110105565A1, “WATER SOLUBLE SMALL MOLECULE INHIBITORS OF THE CYSTIC FIBROSIS TRANSMEMBRANE CONDUCTANCE REGULATOR” (THE REGENTS OF THE UNIVERSITY OF CALIFORNIA, priority 2008, published 2011)
Values after ≈ are worked out from the molar mass of the structure shown.

Assays:
[1] = Solubility measurements in saline (PBS, LC/MS); assay type: physicochemical
Protocol: Solubility measurements. A saturated compound solution was prepared by addition of DMSO stock to phosphate buffered saline (final DMSO 2%) followed by sonication for 5 min at 25° C. and shaking at room temperature for 1 h. After centrifugation at 15,000 rpm for 1 h, the supernatant was analyzed by LC/MS with concentration determined from area under the curve, standardized against calibration data. A standard curve for each compound was obtained by plotting area under the curve from chromatograms against inhibitor concentration. The concentration range of the standard solutions was 1-15 μM (for 5) and 1-100 μM (other compounds). In all cases, standard curves prepared were linear with r>0.998.
A saturated drug solution of a compound was prepared by addition of the compound in DMSO to phosphate buffered saline (PBS), followed by sonication for 5 min at 25° C. Final concentration of DMSO was <2%. Each saturated solution was centrifuged and filtered. The saturated supernatant solution was diluted and injected into LC/MS. The concentration was determined from area under the curve using a calibration curve.

FRT cells = assay: Cytotoxicity measurements, crystal violet staining of FRT cells; assay type: cell-based, rat; settings: 48 h
Protocol: Cytotoxicity measurements. FRT cells in confluent monolayers were incubated with compounds for 2 days. Cells were washed 3 times, fixed (cytofix, 30 min) and stained with crystal violet (100 μl, 0.5%, 10 min) using standard procedures. Excess crystal violet was removed by washing, and dye was extracted with Sorenson's buffer (0.1 M sodium citrate, 50% ethanol, pH 4.2). Crystal violet was quantified by measurement of absorbance at 650 nm. The percentage crystal violet staining was determined from test wells measured 8 times, compared to blanks (wells not containing cells) and vehicle-treated cells.
Cytotoxicity analysis was performed for Tetrazolo-172, Oxo-172, α-Me-172 and Pyridine-NO-172 (Compound 17) and compared with CFTRinh-172 (Table 3). […] Crystal violet staining was reduced for Tetrazolo-172 and α-Me-172 at 50 μM.

Question: With `O=C1/C(=C/c2ccc(-c3nn[nH]n3)cc2)SC(=S)N1c1cccc(C(F)(F)F)c1` [Compound 6, (Z)-5-(4-(1H-tetrazol-5-yl)benzylidene)-2-thioxo-3-(3-(trifluoromethyl)phenyl)thiazolidin-4-one] as the molecule, how does the “increase of solubility in saline/water relative to CFTRinh-172” value [1] read?
Answer: 11 fold

Question: And the “Solubility in saline” value ([1]; Table 3, PBS, DMSO <2%)?
Answer: 189 µM (≈ 81.9 µg/mL)

Question: And the “% Cell viability 20 μM” value (FRT cells; 20 μM, crystal violet staining)?
Answer: 87%

Question: And the “Crystal violet staining at 50 μM (in words)” value (FRT cells; 50 μM)?
Answer: reduced

Question: What about the “% Cell viability 50 μM” value (FRT cells; 50 μM, crystal violet staining) of the same molecule?
Answer: 73%
